Where “and” joins values, the source holds several entries; their conditions need not be identical. Equal entries are not always repeated. Entries after “also recorded” stand apart in the source; their conditions may differ.
Legend:
[1] = Pilot safety study: complete urinalysis; type: in vivo, dog
Protocol: (§1) The animal studies were performed in the accordance with the University of Tennessee Institutional Animal Care and Use Committee (UT IACUC)-approved protocols and in an accordance with NIH guidelines. Individually housed research healthy female beagle dogs (Covance Research Product) with weights of 6.7 to 10.3 kg were used to assess the safety and pharmacokinetic parameters of fluorocoxib D administrated a dose of 1 mg/kg over 20 min intravenously (i.v.).
(§2) For single dose safety evaluation studies, we administrated fluorocoxib D at 1 mg/kg , i.v. using a preplaced cephalic or saphenous vein catheter over 20 min to six healthy research dogs following protocol as described previously.[38] Briefly, physical examinations for signs of potential drug toxicity were performed before, during, and daily for 3 days after fluorocoxib D administration. Physical assessment included auscultation of heart and lungs, abdominal palpation, body temperature, appetite, attitude, activity levels monitoring, and other health-related events. Hypersensitivity was evaluated by direct observation of each dog during treatment for clinical signs of an allergic reaction (facial swelling, flushing, urticaria, dyspnea, scratching, and changes of heart rates). […] Laboratory evaluations of blood and urine were carried out before and 3 days after fluorocoxib D administration to monitor signs of toxicity. Blood (up to 3 ml) was collected into ethylenediaminetetraacetic acid (EDTA) and heparin-treated tubes, and urine (up to 5 ml) was collected by cystocentesis or from the floor of the runs. The laboratory evaluation consisted of a complete blood count (CBC), serum chemistry profile, and complete urinalysis. The CBC evaluated total white blood cells (WBC) and hematocrit (HCT), in addition to absolute numbers of neutrophils, lymphocytes, monocytes, eosinophils, and platelets. The plasma chemistry profile evaluated blood urea nitrogen (BUN), creatinine, proteins (albumin, globulins, and total proteins), alanine aminotransferase (ALT), total bilirubin, glucose, and electrolytes. The complete urinalysis evaluated urine proteins, glucose, and ketones; a sediment examination and urine-specific gravity were validated as well for any possible signs of renal toxicity of fluorocoxib D. All laboratory tests were carried out at the Veterinary Medical Center of the University of Tennessee in Knoxville.

[2] = Pilot safety study: serum chemistry profile; type: in vivo, dog; settings: 3 days after single dose 1 mg/kg i.v.
Protocol: as §1, §2

[3] = tested on: COX-2-expressing head and neck cancer (HNC); assay: Fluorocoxib D uptake in HNC mass during rhinoscopy in a client-owned dog; type: in vivo; settings: for Uptake of fluorocoxib D in HNC during rhinoscopy: 1 mg/kg i.v. over 20 min, half hour uptake, client-owned dog, chondrosarcoma
Protocol: The owners signed a consent form for enrolling their dog for our proof-of principal study. A nine-year old female-spayed Golden Retriever dog weighing 35 kg was presented for an acute onset of unilateral right-sided epistaxis of 5-day duration. Previous medical history included a grade 2 soft tissue sarcoma with a high mitotic index that was completely excised from her ventral neck ∼2 years prior with no signs of regrowth. Rhinoscopy and biopsy procedure in the dog was performed by board-certified veterinary internal specialists (SO and JS) in an accordance with a standard veterinary care and the UT IACUC-approved protocol. Fluorocoxib D was administrated i.v. 1 mg/kg over 20 min using a catheter, followed by a half hour uptake before initiation of rhinoscopy procedure. Rhinoscopy was used to obtain biopsy samples guided by uptaken fluorocoxib D in the computed tomography (CT)-identified head and neck cancer (HNC) mass. Rhinoscopy and biopsy procedures in dog were performed under general anesthesia using a 2.7-mm, 30-deg, 18-cm rigid scope (Karl Storz Veterinary Endoscopy) attached to a TRICAM PDD as described previously[38] using a custom-designed filter system for detection of fluorocoxib D ( λem 645±50 nm ). After complete recovery from the rhinoscopic examination and anesthesia in a quiet room, the client-owned dog was returned to its owners. The heat map images with adjusted hue saturation of fluorocoxib D signal (pink color) from normal tissue (upper three images) and HNC tumor (lower three images) obtained during rhinoscopy were generated using Adobe Photoshop CC2019 software ([…]) in order to better visualize the tumor and its margins. […]
The biopsy samples obtained during rhinoscopy procedures in dogs were formalin-fixed and paraffin-embedded and sectioned at 7-μm thin sections for histology and immunohistochemistry analysis for detection of COX-2 and Ki67 expression as described previously.[38] […] The tissue specimens were evaluated using a Leitz DMRB microscope. […]

COX2 = settings: cited from earlier work
COX1 = settings: cited from earlier work
[4] = tested on: COX-2-expressing human 5637 cancer cells; assay: Fluorocoxib D uptake by human 5637 cancer cells (fluorescence microscopy); type: cell-based; settings: 50 nM, 30 min, COX-2-positive 5637 cells
Protocol: Human 5637 cells were seeded on four-chamber slides (Nalge Nunc, Rochester, New York) and grown until reached 70% to 80% confluence. […] The nuclei of cells were stained with DAPI for 10 min, and slides were mounted using an aqueous mounting medium. Images of cells were captured by a Leica DMi8 fluorescent microscope with Hamamatsu Orca Flash 4.0LT Digital CMOS Camera (Leica Microsystems Inc., Chicago, Illinois) using Leica Application Suite X software (LASX, Leica).

[5] = Pilot safety study: physical examination and adverse events; type: in vivo, dog
Protocol: as §1
as §2, with “Blood (up to 3 ml) was collected into ethylenediaminetetraacetic acid (EDTA) and heparin-treated tubes, and urine (up to 5 ml) was collected by cystocentesis or from the floor of the runs. The laboratory evaluation consisted of a complete blood count (CBC), serum chemistry profile, and complete urinalysis.” left out

[6] = 3 days after single dose 1 mg/kg i.v., individual dogs, reference NEG, 1 mg/kg

SMILES: COc1ccc2c(c1)c(CC(=O)NCCCCNC(=O)c1ccc(C3=c4cc5c6c(c4Oc4c3cc3c7c4CCCN7CCC3)CCC[N+]=6CCC5)cc1)c(C)n2C(=O)c1ccc(Cl)cc1 [Fluorocoxib D, N -[(rhodamin-X-yl)but-4-yl]-2-[1-(4-chlorobenzoyl)-5-methoxy-2-methyl-1H-indol-3-yl]acetamide]
- SP. GRAV (urine-specific gravity), After ([1]; 3 days after single dose 1 mg/kg i.v., individual dogs, 1 mg/kg): 1.03 and 1.039 (2×) and 1.032 and 1.044
- GLU-COSE (urine), After ([1]; 3 days after single dose 1 mg/kg i.v., individual dogs, reference NEG): NEG
- PRO-TEIN (urine), After ([1]; 3 days after single dose 1 mg/kg i.v., individual dogs, reference NEG-1+, 1 mg/kg): NEG (3×) and TRACE
- BLD/Hb (urine blood/hemoglobin), After [1, 6]: NEG (2×) and TRACE (2×)
- KETO-NES (urine), After [1, 6]: NEG (3×) and TRACE (2×)
- PH (urine pH), After ([1]; 3 days after single dose 1 mg/kg i.v., individual dogs, reference range 5 to 9, 1 mg/kg): >9 H and 6 (3×) and 5.5
- Urine bacteria finding 3 days after administration ([1]; two dogs (#4 and #6), no pyuria, not thought relevant to toxicity): bacteriuria
- TOT BILI (total bilirubin), After ([2]; dogs #1, #3, #6, reference range 0.1 to 0.6): 0.1 mg/dL
- CREATI (creatinine), After ([2]; individual dogs #1-#6, reference range 0.3 to 1.1, 1 mg/kg): 0.8 mg/dL (3×) and 0.6 mg/dL (3×)
- MAG (magnesium), After ([2]; individual dogs #1-#6, reference range 0.65 to 0.98, 1 mg/kg): 0.7 mmol/L (4×) and 0.8 mmol/L (2×)
- GLOB (globulin), After ([2]; individual dogs #1-#6, reference range 1.9 to 3.1, 1 mg/kg): 2.3 g/dL (2×) and 2 g/dL (2×) and 2.6 g/dL and 2.1 g/dL
- PHOS (phosphorus), After ([2]; individual dogs #1-#6, reference range 2.5 to 5.9, 1 mg/kg): 3.5 mg/dL and 4.3 mg/dL and 3.3 mg/dL and 3.9 mg/dL and 3.4 mg/dL and 3.6 mg/dL
- POTAS (potassium), After ([2]; individual dogs #1-#6, reference range 2.8 to 4.7, 1 mg/kg): 3.9 mEq/L and 4.2 mEq/L and 3.7 mEq/L (2×) and 3.5 mEq/L and 3.8 mEq/L
- ALBUM (albumin), After ([2]; individual dogs #1-#6, reference range 3.2 to 4.3, 1 mg/kg): 3.1 L g/dL and 3.4 g/dL (2×) and 3 L g/dL and 3.5 g/dL and 3.3 g/dL
- TOT. PROT (total proteins), After ([2]; individual dogs #1-#6, reference range 5.4 to 6.8, 1 mg/kg): 5.4 g/dL (2×) and 5.7 g/dL and 5.6 g/dL (2×) and 5.2 L g/dL
- BUN (blood urea nitrogen), After ([2]; individual dogs #1-#6, reference range 7 to 37, 1 mg/kg): 12 mg/dL and 17 mg/dL (2×) and 14 mg/dL and 16 mg/dL and 19 mg/dL
- CAL (calcium), After ([2]; individual dogs #1-#6, reference range 10 to 12, 1 mg/kg): 9.5 L mg/dL and 10 mg/dL and 9.9 L mg/dL and 9.7 L mg/dL and 10.3 mg/dL and 9.4 L mg/dL
- ALT (alanine aminotransferase), After ([2]; individual dogs #1-#6, reference range 18 to 100, 1 mg/kg): 26 U/L (2×) and 23 U/L and 22 U/L (2×) and 25 U/L
- GLUCO (glucose), After ([2]; individual dogs #1-#6, reference range 82 to 132, 1 mg/kg): 94 mg/dL and 103 mg/dL and 100 mg/dL and 91 mg/dL and 105 mg/dL and 110 mg/dL
- CHLOR (chlorine), After ([2]; individual dogs #1-#6, reference range 112 to 119, 1 mg/kg): 111 L mEq/L and 114 mEq/L (2×) and 113 mEq/L and 112 mEq/L and 116 mEq/L
- SOD (sodium), After ([2]; individual dogs #1-#6, reference range 141 to 147, 1 mg/kg): 144 mEq/L and 146 mEq/L (2×) and 147 mEq/L (2×) and 148 H mEq/L
- Uptake of fluorocoxib D in HNC during rhinoscopy [3]: uptake was detected
- Uptake of fluorocoxib D in HNC during rhinoscopy ([3]; listed as fluorocoxib D): Specific uptake of fluorocoxib D was detected
- Tumor-to-normal tissue ratio (T/N ratio) of fluorocoxib D signal ([3]; 1 mg/kg i.v., canine HNC, ImageJ, normal n=804 and tumor ROI n=866): 3.7±0.9
- IC50 (COX2): 230 nM
- Ratio (COX1/COX2) (COX2; ratio of IC50 values): 17.4
- IC50 (COX1): 4000 nM
- Uptake of fluorocoxib D by 5637 cells [4]: Selective uptake
- Adverse events including diarrhea, vomiting, nausea, and loss of appetite ([5]; 1 mg/kg i.v. over 20 min, six research dogs): not observed
- Overall safety / toxicity of single dose ([5]; 1 mg/kg i.v. over 20 min, six research dogs, 3 days observation): No evidence of toxicity; also recorded: safe dose; also recorded: no clinically relevant adverse events
- Salivation during administration ([5]; one dog of six, during 20 min i.v. administration, attributed to DMSO solvent): increased salivation

From paper PMC7456637, “Pharmacokinetic characterization of fluorocoxib D, a cyclooxygenase-2-targeted optical imaging agent for detection of cancer” (Journal of Biomedical Optics, 2020)
